ChEMBL document CHEMBL1909046, “DrugMatrix in vitro pharmacology data”

Legend:
Cannabinoid receptor 1 = Cannabinoid receptor 1 (Homo sapiens, UniProt P21554); assay type: cell membranes, Membrane; details: chem-1; also: in other assays of this panel Not Active means under 50% inhibition at 10 µM
[1] = DRUGMATRIX: Phosphodiesterase PDE4 enzyme inhibition (substrate: [3H]cAMP + cAMP); details: u-937; Not Active = under 50% inhibition at 10 µM
[2] = DRUGMATRIX: Potassium Channel [KATP] radioligand binding (ligand: [3H] Glyburide); assay type: cell membranes, Membrane; details: hit-t15; Not Active = under 50% inhibition at 10 µM
D(3) dopamine receptor = D(3) dopamine receptor (Homo sapiens, UniProt P35462); test: DRUGMATRIX: Dopamine D3 radioligand binding (ligand: [3H] Spiperone); assay type: cell membranes, CHO, Membrane; details: cho
Sequence of D(3) dopamine receptor (P35462 whole entry): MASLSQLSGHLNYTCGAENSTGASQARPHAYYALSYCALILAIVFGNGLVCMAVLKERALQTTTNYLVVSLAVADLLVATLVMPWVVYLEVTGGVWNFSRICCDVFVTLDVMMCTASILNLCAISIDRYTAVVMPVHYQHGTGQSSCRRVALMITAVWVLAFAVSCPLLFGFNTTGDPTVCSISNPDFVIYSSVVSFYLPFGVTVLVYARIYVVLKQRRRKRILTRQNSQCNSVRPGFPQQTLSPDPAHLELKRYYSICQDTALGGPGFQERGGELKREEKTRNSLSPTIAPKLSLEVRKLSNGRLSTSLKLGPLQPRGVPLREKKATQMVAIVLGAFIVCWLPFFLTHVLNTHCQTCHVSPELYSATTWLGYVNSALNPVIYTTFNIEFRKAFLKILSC

Insulin receptor = Insulin receptor (Rattus norvegicus, UniProt P15127); assay type: cell membranes, Wistar, Liver, Membrane; also: in other assays of this panel Not Active means under 50% inhibition at 10 µM
Sequence of Insulin receptor (P15127 27-759 limits assumed): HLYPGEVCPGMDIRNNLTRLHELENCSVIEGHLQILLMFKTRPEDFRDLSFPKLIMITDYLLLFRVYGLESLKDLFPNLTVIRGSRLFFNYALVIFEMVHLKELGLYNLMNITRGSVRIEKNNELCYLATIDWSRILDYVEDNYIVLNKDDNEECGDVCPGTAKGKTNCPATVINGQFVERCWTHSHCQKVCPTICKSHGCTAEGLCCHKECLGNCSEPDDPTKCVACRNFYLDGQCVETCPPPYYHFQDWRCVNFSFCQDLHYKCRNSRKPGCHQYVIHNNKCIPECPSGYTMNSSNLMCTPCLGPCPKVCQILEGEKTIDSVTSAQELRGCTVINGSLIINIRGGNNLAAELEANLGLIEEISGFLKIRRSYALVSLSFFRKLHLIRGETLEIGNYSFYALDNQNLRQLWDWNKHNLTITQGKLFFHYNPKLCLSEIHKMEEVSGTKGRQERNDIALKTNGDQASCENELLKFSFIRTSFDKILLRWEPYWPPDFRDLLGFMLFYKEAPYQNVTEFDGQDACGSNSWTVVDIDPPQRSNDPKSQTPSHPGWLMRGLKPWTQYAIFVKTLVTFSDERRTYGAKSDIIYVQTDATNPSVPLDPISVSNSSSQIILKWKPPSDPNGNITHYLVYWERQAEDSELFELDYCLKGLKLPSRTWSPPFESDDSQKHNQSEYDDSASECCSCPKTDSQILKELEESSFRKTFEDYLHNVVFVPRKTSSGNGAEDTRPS
Sequence of Insulin receptor (P15127 764-1383 limits assumed): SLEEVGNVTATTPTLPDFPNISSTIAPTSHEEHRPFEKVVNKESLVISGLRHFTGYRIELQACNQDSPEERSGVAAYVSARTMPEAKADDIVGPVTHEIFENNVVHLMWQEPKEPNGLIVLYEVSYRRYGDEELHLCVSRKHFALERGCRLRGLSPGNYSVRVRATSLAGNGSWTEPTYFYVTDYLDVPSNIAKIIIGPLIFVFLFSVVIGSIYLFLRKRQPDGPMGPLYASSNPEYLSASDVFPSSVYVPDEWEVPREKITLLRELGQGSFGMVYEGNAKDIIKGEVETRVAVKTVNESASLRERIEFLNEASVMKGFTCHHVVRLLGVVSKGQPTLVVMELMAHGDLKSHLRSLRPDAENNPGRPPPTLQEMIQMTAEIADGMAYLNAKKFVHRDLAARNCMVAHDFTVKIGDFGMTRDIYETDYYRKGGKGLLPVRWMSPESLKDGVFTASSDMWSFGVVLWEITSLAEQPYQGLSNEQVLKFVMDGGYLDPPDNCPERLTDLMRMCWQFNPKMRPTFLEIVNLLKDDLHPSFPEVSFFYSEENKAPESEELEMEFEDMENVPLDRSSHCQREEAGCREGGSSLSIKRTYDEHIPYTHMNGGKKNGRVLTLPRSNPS

Adenosine receptor A3 = target: T1, Adenosine receptor A3 (Homo sapiens, UniProt P0DMS8); assay type: cell membranes, CHO-K1, Membrane; details: cho-k1;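 also: radioligand binding assay with AB-MECA serving as the labeled ligand; in other assays of this panel Not Active means under 50% inhibition at 10 µM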
T1 sequence (P0DMS8 whole entry): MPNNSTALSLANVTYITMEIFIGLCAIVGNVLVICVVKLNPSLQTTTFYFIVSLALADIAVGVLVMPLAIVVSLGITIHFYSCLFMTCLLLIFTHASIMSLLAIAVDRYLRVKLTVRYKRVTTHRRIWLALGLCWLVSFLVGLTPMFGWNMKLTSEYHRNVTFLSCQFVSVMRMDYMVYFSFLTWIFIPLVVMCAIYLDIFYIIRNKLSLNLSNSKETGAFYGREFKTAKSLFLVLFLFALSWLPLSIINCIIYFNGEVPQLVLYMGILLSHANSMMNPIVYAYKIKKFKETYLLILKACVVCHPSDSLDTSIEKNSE

[3] = DRUGMATRIX: beta-Lactamase enzyme inhibition (substrate: Nitrocefin); parameters: species or system Bacillus cereus; details: Not Active = under 50% inhibition at 10 µM
Substance-P receptor = Substance-P receptor (Homo sapiens, UniProt P25103); assay type: cell membranes, CHO, Membrane; details: cho; also: in other assays of this panel Not Active means under 50% inhibition at 10 µM
Sequence of Substance-P receptor (P25103 whole entry): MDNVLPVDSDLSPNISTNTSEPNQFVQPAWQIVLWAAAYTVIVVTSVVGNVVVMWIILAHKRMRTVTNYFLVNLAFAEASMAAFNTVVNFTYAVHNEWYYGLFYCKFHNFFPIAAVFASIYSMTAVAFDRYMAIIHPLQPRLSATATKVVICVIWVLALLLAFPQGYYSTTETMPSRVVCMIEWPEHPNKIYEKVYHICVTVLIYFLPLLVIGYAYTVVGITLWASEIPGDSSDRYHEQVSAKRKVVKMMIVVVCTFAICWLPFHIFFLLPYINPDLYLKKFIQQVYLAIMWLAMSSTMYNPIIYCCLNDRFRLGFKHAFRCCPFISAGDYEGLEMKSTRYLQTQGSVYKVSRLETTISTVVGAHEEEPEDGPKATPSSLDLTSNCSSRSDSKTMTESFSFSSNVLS

Melanocortin receptor 4 = Melanocortin receptor 4 (Homo sapiens, UniProt P32245); assay type: cell membranes, Membrane; details: hek293; also: in other assays of this panel Not Active means under 50% inhibition at 10 µM
Sequence of Melanocortin receptor 4 (P32245 whole entry): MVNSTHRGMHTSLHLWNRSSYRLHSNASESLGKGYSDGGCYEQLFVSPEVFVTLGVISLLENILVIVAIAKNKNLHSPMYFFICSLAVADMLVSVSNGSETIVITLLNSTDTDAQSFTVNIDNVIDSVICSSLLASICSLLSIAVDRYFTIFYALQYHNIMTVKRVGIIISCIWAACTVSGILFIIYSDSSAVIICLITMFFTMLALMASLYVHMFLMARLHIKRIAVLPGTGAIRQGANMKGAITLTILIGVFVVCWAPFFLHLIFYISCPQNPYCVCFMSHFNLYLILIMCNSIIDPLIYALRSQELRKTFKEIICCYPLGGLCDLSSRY

Acetylcholinesterase = Acetylcholinesterase (Homo sapiens, UniProt P22303); test: DRUGMATRIX: Acetylcholinesterase enzyme inhibition (substrate: acetylthiocholine); assay type: cell-based, HEK293; details: hek293; Not Active = under 50% inhibition at 10 µM
Sequence of Acetylcholinesterase (P22303 whole entry): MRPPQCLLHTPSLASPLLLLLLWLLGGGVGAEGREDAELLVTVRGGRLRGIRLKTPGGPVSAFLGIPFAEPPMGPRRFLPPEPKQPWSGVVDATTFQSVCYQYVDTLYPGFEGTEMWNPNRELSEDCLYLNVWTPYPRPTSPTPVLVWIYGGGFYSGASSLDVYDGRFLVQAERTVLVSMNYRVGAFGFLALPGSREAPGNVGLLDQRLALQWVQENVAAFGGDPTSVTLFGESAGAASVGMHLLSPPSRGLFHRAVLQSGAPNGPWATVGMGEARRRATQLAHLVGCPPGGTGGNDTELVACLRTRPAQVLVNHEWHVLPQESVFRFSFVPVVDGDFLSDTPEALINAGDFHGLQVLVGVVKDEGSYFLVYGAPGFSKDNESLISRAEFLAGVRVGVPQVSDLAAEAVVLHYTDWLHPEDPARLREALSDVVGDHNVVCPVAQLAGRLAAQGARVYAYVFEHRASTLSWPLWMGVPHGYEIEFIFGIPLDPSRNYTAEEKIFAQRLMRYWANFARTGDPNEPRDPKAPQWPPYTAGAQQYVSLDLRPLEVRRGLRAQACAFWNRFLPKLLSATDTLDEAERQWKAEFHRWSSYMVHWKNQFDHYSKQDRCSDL

[4] = target: T2, Neuropeptide Y receptor type 2 (Homo sapiens, UniProt P49146); assay type: cell membranes, Membrane; details: kan-ts; also: in other assays of this panel Not Active means under 50% inhibition at 10 µM
T2 sequence (P49146 whole entry): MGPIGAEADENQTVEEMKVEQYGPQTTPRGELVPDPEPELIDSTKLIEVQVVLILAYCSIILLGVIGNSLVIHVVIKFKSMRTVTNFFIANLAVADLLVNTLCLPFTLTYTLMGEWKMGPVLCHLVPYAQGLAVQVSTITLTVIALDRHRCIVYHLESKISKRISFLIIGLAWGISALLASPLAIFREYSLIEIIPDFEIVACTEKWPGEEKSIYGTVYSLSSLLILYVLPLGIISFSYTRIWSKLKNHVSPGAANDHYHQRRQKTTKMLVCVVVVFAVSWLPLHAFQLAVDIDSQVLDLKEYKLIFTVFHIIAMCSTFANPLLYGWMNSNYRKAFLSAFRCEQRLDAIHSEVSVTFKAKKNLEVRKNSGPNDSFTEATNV

[5] = DRUGMATRIX: ATPase, Na+/K+ enzyme inhibition (substrate: ATP); assay type: tissue-based, Sus scrofa, Heart; details: Not Active = under 50% inhibition at 10 µM
[6] = DRUGMATRIX: Calcium Channel Type L, Dihydropyridine radioligand binding (ligand: [3H] Nitrendipine); assay type: cell membranes, Rattus norvegicus, Wistar, Cerebral cortex, Membrane; details: Not Active = under 50% inhibition at 10 µM
[7] = target: Matrix metalloproteinase-9 (Homo sapiens, UniProt P14780); assay type: cell-based
Sequence of Matrix metalloproteinase-9 (P14780 whole entry): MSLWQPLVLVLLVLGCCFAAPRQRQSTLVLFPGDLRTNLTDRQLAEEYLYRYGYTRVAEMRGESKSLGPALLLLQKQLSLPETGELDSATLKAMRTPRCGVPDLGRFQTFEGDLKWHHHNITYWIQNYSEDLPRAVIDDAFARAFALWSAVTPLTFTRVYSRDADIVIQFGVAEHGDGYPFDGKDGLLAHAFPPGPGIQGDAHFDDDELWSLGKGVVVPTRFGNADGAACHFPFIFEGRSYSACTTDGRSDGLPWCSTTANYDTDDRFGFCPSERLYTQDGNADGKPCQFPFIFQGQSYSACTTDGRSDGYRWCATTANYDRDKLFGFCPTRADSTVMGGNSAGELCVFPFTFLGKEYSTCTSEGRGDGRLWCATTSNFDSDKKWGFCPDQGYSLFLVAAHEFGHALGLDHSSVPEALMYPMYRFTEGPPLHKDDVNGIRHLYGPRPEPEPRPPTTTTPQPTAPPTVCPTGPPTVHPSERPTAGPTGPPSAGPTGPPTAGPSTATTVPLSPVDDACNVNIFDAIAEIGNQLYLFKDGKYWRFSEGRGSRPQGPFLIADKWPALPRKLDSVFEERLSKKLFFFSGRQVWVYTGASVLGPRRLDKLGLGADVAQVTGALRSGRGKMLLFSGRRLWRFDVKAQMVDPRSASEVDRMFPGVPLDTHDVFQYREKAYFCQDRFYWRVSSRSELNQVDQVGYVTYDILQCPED

Cytochrome P450 3A4 = Cytochrome P450 3A4 (Homo sapiens, UniProt P08684); details: bti-tn-5b1-4; also: in other assays of this panel Not Active means under 50% inhibition at 10 µM
Sequence of Cytochrome P450 3A4 (P08684 whole entry): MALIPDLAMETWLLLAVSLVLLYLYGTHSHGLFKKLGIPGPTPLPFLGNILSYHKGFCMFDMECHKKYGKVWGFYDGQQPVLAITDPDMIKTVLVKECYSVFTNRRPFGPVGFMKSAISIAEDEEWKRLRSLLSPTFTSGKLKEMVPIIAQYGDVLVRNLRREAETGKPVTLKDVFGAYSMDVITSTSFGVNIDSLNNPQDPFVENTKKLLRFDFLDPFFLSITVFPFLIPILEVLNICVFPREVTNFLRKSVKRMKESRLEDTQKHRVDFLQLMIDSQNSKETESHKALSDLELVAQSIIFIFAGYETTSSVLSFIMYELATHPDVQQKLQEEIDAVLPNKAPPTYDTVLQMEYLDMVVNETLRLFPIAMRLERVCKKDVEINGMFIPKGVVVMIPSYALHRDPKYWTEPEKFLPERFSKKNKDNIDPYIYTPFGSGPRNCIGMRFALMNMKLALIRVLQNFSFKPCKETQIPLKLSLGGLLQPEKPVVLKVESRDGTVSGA

Sequence of Cannabinoid receptor 1 (P21554 whole entry): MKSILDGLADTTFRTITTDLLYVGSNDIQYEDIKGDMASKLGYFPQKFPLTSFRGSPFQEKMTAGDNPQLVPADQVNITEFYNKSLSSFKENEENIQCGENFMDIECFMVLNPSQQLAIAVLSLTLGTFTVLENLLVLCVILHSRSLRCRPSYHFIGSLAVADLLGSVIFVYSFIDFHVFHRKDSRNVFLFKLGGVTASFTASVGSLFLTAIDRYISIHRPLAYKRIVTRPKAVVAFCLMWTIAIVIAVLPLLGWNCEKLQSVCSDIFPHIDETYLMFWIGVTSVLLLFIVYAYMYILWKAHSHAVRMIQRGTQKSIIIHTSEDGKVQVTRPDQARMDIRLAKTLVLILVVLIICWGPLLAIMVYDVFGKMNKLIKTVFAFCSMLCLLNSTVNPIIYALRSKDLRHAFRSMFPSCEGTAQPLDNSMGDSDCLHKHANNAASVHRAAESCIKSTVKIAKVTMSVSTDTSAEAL

CC(C)NC[C@H](O)COc1cccc2[nH]ccc12
Not Active: IC50 (Cannabinoid receptor 1) | IC50 [1] | Ki [1] | IC50 [2] | Ki [2] | IC50 (D(3) dopamine receptor) | IC50 (Insulin receptor) | IC50 (Adenosine receptor A3) | IC50 [3] | Ki [3] | IC50 (Substance-P receptor) | IC50 (Melanocortin receptor 4) | IC50 (Acetylcholinesterase) | IC50 [4] | IC50 [5] | Ki [5] | IC50 [6] | Ki [6] | IC50 [7]

CCCSc1ccc2nc(NC(=O)OC)[nH]c2c1 [ALBENDAZOLE]
Not Active: IC50 (Cannabinoid receptor 1) | IC50 [1] | Ki [1] | IC50 [2] | Ki [2] | IC50 (D(3) dopamine receptor) | IC50 (Insulin receptor) | IC50 (Adenosine receptor A3) | IC50 [3] | Ki [3] | IC50 (Substance-P receptor) | IC50 (Melanocortin receptor 4) | IC50 (Acetylcholinesterase) | IC50 [4] | IC50 [5] | Ki [5] | IC50 [6] | Ki [6] | IC50 [7]

CCCCOC(=O)c1ccc(N)cc1 [BUTAMBEN]
Not Active: IC50 (Cannabinoid receptor 1) | IC50 [1] | Ki [1] | IC50 [2] | Ki [2] | IC50 (D(3) dopamine receptor) | IC50 (Insulin receptor) | IC50 (Adenosine receptor A3) | IC50 [3] | Ki [3] | IC50 (Substance-P receptor) | IC50 (Melanocortin receptor 4) | IC50 (Acetylcholinesterase) | IC50 [4] | IC50 [5] | Ki [5] | IC50 [6] | Ki [6] | IC50 [7]

O=C(O)c1cn(C2CC2)c2cc(N3CCNCC3)c(F)cc2c1=O [CIPROFLOXACIN]
Not Active: IC50 (Cannabinoid receptor 1) | IC50 [1] | Ki [1] | IC50 [2] | Ki [2] | IC50 (D(3) dopamine receptor) | IC50 (Insulin receptor) | IC50 (Adenosine receptor A3) | IC50 [3] | Ki [3] | IC50 (Substance-P receptor) | IC50 (Melanocortin receptor 4) | IC50 (Acetylcholinesterase) | IC50 [4] | IC50 [5] | Ki [5] | IC50 [6] | Ki [6] | IC50 [7]

COC(=O)[C@H](c1ccccc1Cl)N1CCc2sccc2C1 [CLOPIDOGREL]
Not Active: IC50 (Cannabinoid receptor 1) | IC50 [1] | Ki [1] | IC50 [2] | Ki [2] | IC50 (D(3) dopamine receptor) | IC50 (Insulin receptor) | IC50 (Adenosine receptor A3) | IC50 [3] | Ki [3] | IC50 (Substance-P receptor) | IC50 (Melanocortin receptor 4) | IC50 (Acetylcholinesterase) | IC50 [4] | IC50 [5] | Ki [5] | IC50 [6] | Ki [6] | IC50 [7]

COc1ccc([C@@H]2Sc3ccccc3N(CCN(C)C)C(=O)[C@@H]2OC(C)=O)cc1 [DILTIAZEM]
Not Active: IC50 (Cannabinoid receptor 1) | IC50 [1] | Ki [1] | IC50 [2] | Ki [2] | IC50 (D(3) dopamine receptor) | IC50 (Insulin receptor) | IC50 (Adenosine receptor A3) | IC50 [3] | Ki [3] | IC50 (Substance-P receptor) | IC50 (Melanocortin receptor 4) | IC50 (Acetylcholinesterase) | IC50 [4] | IC50 [5] | Ki [5] | IC50 [6] | Ki [6] | IC50 [7]

C/C=C1\[C@H]2C=C(C)C[C@]1(N)c1ccc(=O)[nH]c1C2 [HUPERZINE A]
Not Active: IC50 (Cytochrome P450 3A4) | Ki (Cytochrome P450 3A4) | IC50 (Cannabinoid receptor 1) | IC50 [1] | Ki [1] | IC50 [2] | Ki [2] | IC50 (D(3) dopamine receptor) | IC50 (Insulin receptor) | IC50 (Adenosine receptor A3) | IC50 [3] | Ki [3] | IC50 (Substance-P receptor) | IC50 (Melanocortin receptor 4) | IC50 [4] | IC50 [5] | Ki [5] | IC50 [6] | Ki [6] | IC50 [7]

CNC(=O)Oc1ccc2c(c1)[C@]1(C)CCN(C)[C@@H]1N2C [PHYSOSTIGMINE]
Not Active: IC50 (Cytochrome P450 3A4) | Ki (Cytochrome P450 3A4) | IC50 (Cannabinoid receptor 1) | IC50 [1] | Ki [1] | IC50 [2] | Ki [2] | IC50 (D(3) dopamine receptor) | IC50 (Insulin receptor) | IC50 (Adenosine receptor A3) | IC50 [3] | Ki [3] | IC50 (Substance-P receptor) | IC50 (Melanocortin receptor 4) | IC50 [4] | IC50 [5] | Ki [5] | IC50 [6] | Ki [6] | IC50 [7]
